Each structure is given as a SMILES string.

One assay deals with PI3Kδ (Homo sapiens, UniProt O00329). Briefly: PI3Kδ kinase assay (HTRF). It counts as biochemical. The conditions noted are these: symbols ++ / +; read-out: PI3Kδ Inhibition Activity (IC50 class). How it is done: The PIP3 product is detected by displacement of biotin-PIP3 from an energy transfer complex consisting of Europium labeled anti-GST monoclonal antibody, a GST-tagged pleckstrin homology (PH) domain, biotinylated PIP3 and Streptavidin-Allophycocyanin (APC). […] The PIP3 product formed by PI 3-Kinase(h) activity displaces biotin-PIP3 from the complex resulting in a loss of energy transfer, and thus, a decrease in signal.
PI3Kδ, sequence (O00329 whole entry): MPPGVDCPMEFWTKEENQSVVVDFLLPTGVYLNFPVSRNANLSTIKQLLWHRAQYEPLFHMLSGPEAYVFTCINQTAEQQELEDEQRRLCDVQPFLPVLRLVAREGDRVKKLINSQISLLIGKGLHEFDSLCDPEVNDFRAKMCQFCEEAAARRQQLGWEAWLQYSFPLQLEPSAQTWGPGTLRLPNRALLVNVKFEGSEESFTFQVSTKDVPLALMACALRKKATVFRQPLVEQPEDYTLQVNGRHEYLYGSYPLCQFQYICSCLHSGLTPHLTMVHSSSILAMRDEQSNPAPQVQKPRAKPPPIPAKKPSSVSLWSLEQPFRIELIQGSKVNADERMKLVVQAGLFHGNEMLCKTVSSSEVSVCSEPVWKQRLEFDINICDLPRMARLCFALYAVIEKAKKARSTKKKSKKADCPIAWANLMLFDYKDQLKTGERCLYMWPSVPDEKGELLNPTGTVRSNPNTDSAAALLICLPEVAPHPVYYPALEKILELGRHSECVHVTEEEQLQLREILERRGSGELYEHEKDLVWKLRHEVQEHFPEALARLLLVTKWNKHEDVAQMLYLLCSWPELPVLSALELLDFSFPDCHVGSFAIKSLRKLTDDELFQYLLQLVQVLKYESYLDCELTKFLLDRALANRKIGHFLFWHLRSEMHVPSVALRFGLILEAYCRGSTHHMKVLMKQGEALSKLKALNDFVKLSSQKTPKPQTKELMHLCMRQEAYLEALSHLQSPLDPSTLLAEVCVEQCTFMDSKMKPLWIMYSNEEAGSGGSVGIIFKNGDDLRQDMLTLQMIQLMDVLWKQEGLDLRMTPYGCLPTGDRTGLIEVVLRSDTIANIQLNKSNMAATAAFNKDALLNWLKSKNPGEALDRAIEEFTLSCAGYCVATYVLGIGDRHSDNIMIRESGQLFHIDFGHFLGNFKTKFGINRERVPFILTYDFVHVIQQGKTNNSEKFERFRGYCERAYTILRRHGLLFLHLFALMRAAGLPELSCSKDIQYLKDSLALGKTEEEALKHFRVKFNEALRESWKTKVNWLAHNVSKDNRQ
PI3Kδ, sequence (P27986 whole entry partner): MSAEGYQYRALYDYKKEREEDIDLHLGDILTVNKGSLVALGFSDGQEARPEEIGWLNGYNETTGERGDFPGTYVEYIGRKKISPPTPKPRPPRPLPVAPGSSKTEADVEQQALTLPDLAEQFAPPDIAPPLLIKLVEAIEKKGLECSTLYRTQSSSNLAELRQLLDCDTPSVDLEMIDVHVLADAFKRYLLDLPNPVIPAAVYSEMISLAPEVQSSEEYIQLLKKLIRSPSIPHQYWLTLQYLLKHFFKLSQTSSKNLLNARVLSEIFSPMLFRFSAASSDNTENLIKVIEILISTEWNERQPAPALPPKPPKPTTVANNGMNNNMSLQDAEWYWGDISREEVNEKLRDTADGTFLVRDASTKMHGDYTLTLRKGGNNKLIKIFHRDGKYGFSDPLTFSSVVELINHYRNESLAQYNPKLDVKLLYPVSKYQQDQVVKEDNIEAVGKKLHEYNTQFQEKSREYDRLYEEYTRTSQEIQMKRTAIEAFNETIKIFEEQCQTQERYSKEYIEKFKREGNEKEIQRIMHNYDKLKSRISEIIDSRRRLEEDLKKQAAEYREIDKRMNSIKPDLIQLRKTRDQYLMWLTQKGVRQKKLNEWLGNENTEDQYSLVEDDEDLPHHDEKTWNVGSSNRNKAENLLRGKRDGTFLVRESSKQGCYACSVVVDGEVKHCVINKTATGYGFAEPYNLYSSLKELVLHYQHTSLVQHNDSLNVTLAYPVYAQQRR
First, the kinase reaction with PIP2 substrate is carried out in the presence of ATP, and the reaction is quenched with stop Solution, and then, finally detect by adding Detection Mixture followed by incubation.
HEPES 50 mM (pH7.0), NaN3 0.02%, BSA 0.01%, Orthovanadate 0.1 mM, 1% DMSO.
Detection buffer: HEPES 10 mM (pH7.0), BSA 0.02%, KF 0.16 M, EDTA 4 mM.
10 μM PIP2 substrate (PI(4,5)P2)
10 μM ATP under standard conditions
1. Prepare substrate in freshly prepared Reaction Buffer.
2. Deliver kinase into the substrate solution and gently mix.
3. Deliver compounds in 100% DMSO into the kinase reaction mixture by Acoustic technology (Echo550; nanoliter range), incubate for 10 min at room temperature.
4. Deliver ATP into the reaction mixture to initiate the reaction.
5. Incubate for 30 min at 30° C.
6. Quench the reaction with Stop Solution.
7. Add Detection Mixture, and incubate for overnight.
The emission ratio is converted into μM PIP3 production based on PIP3 standard curves.
The nonlinear regression to obtain the standard curve and IC50 values are performed using Graphpad Prism software.
A general note: TR-FRET usually uses a lanthanide donor and a delayed reading to cut background.

The test system of assay [1] is Leukemia Cell Line HL-60(TB). It is filed as cell-based. The note with it: Homo sapiens; HL-60(TB); single dose, 10 uM compound concentration; read-out: inhibition of proliferation.
The next assay has as its system Leukemia Cell Line K-562. It counts as cell-based. The conditions noted are these: Homo sapiens, K562; K-562; single dose, 10 uM compound concentration; read-out: inhibition of proliferation.
For assay [2], the system named is Leukemia Cell Line MOLT-4. It counts as cell-based. The conditions noted are these: Homo sapiens; MOLT-4; single dose, 10 uM compound concentration; read-out: inhibition of proliferation.
In assay [3] the test system is Melanoma Cell Line UACC-62. Briefly: cells. It is filed as cell-based. The note with it: Homo sapiens; UACC-62; single dose, 10 uM compound concentration; read-out: inhibition of proliferation.
Assay [4] concerns Breast Cancer Cell Line HS 578T. It counts as cell-based. The conditions noted are these: Homo sapiens; HS 578T; single dose, 10 uM compound concentration; read-out: inhibition of proliferation.

As for `CC[C@H](Nc1nc(N)nc(C)c1C#N)c1nc2cccc(CN(C)c3ncc(C(=O)NO)cn3)c2c(=O)n1-c1ccccc1` [LII, (S)-2-(((2-(1-((2-amino-5-cyano-6-methylpyrimidin-4-yl)amino)propyl)-4-oxo-3-phenyl-3,4-dihydroquinazolin-5-yl)methyl)(methyl)amino)-N-hydroxypyrimidine-5-carboxamide], the half-maximal inhibitory concentration (IC50) – broadly, the concentration at which inhibition is half-maximal – at PI3Kδ was below 100 nM. In addition, the inhibition at 10 µM (in assay [1]; with Leukemia Cell Line K-562; in assay [2]; in assay [3]; in assay [4]) was above 50% each time.

Source of the values: patent US20200165257A1, “INHIBITORS OF PHOSPHOINOSITIDE 3-KINASE AND HISTONE DEACETYLASE FOR TREATMENT OF CANCER” (THE UNITED STATES OF AMERICA, AS REPRESENTED BY THE …, priority 2017, published 2020).
